# Assay results as given in patent US7125847B1, “Mechanically activated channel blocker” (priority 2000, dated 2006).
# Several values for one entry are separate records, joined by “and”; a condition that tells them apart may be missing. Equal entries are not always repeated.
# Key:
# [1] = test system: stretch-activated channels (SACs); assay: Outside-out patch clamp of stretch-activated channels in adult rat astrocytes; format: cell-based
# Experimental: This embodiment describes the effect of the peptide GsMTx-4 variant (SEQ ID NO:1) on SACs. To illustrate this, adult rat astrocytes which are known to have SACs, were used. Adult rat astrocytes were cultured according to standard methods. Briefly, activated adult astrocytes isolated from gelatin-sponge implants from adult Sprague-Dawley rat brains obtained according to the method of Langan et al. (1995, Glia, 14:174–184) were used at passage numbers 2–4. Astrocytes were maintained in DMEM, 10% fetal bovine serum and 1% Penicillin/Streptomycin and were used in experiments between 2 and 5 days after passage. Cells between passage 4 and 35 expressed SACs with the same properties Both stellate process bearing cells and flat polygonal (fibroblast-like) cells were used.
# The cultured astrocytes were used for single channel and whole cell recorndings. For single channel patch clamp, patch voltage was controlled by an Axopatch 200B (Axon Instruments, Calif.) and currents were recorded directly onto computer disk via a Labmaster DMA Ver. B (Scientific Instruments, Calif.) board controlled by pClamp6-Clampex acquisition software (Axon Instruments, California). Currents were sampled at 10 KHz and low-pass filtered at 2 KHz through the 4 pole Bessel filter on the Axopatch 200B. Experimental voltage protocols were controlled by pClamp6-Clampex. All potentials are defined with respect to the extracellular surface.
# Electrodes were pulled on a Model PC-84 pipette puller (Brown-Flaming Instruments, Calif.), painted with Sylgard 184 (Dow Corning Corp. Midland Mich.) and fire polished. Electrodes were filled with KCl saline (KCl 140 mM, EGTA 5 mM, MgSO4 2 mM, Hepes 10 mM, pH 7.3) and had resistances ranging from 3–8 MWBath saline consisted of NaCl 140 mM, KCl 5 mM, MgSO4 1 mM, CaCl2 1 mM, glucose 6 mM and Hepes 10 mM, pH 7.3.
# Pressure and suction were applied to the pipette by a pressure clamp. Pressure values represent pressure in the pipette, i.e., the intracellular side of the membrane in outside-out patches. Suction applied to a cell-attached patch has the same sign as pressure applied to an outside-out patch. The rise time of pressure changes at the tip were determined by monitoring the rate of current change when pressure steps were applied to an electrode containing 150 mM KCl solution and placed in a water bath. The t10-90 was ˜5 ms as determined by exponential fits to the current decay. Perfusion of toxin samples was performed by a pressurized bath perfusion system BPS-8 (ALA scientific instruments, NY) with 8 separate channels.
# Off-line data analysis was performed with pClamp6 analysis software and Origin 5.0. Maximal unitary channel currents were determined via Guassian fits to the peaks of all points amplitude histograms generated from records containing 1–3 channels. […] Some of these records were analyzed by determining all of the step-like changes in current during the pressure application and selecting the average maximal current level as the unitary current. The data analyzed by this method was in good agreement with the unitary current levels determined by analysis of all points amplitude histograms from single channel patches.
# The outside out patches from adult astrocytes as described above were used for testing the HPLC fractions obtained in Example 1. The HPLC fractions were lyophilized, redissolved at a 1:1000 dilution and perfused onto outside out patches. […] The fraction containing the single peak in FIG. 1D was then tested for activity against SACs. […] The patch was held at −50 mV, and the pressure pulse is shown above the records.
# The entire experiment is comprised of 60 pressure steps: steps 1–20 occur before GsMTx-4 application; steps 21–38 while GsMTx-4 is being perfused; steps 39–60 occur during washout. Each 500 ms pressure step was separated by 1.5 seconds at 0 pressure.
# The association rate of the toxin was determined by applying GsMTx-4 to an outside-out patch while the channels were activated by stretch (FIG. 5). […]
# [2] = test system: swelling-activated currents in ventricular myocytes; assay: Perforated patch whole-cell swelling-activated currents in ventricular myocytes from rabbits with aortic regurgitation-induced CHF; format: cell-based, rabbit; settings: 0.4 μM
# Experimental: Ventricular myocytes were freshly isolated from New Zealand white rabbits with aortic regurgitation induced congestive heart failure using a collagenase-pronase dispersion method (Clemo et al., 1997, supra). Cells were stored in a modified Kraft-Bruhe solution (KOH 132 mM, glutamic acid 120 mM, KCl 2.5 mM, KH2PO4 10 mM, MgSO4 1.8 mM, K2EGTA 0.5 mM, glucose 11 mM, taurine 10 mM, Hepes 10 mM, pH 7.2). Myocytes were used within 6 h of harvesting and only quiescent cells with no evidence of membrane blebbing were selected for study.
# Swelling activated currents were measured in myocytes according to the method of Clemo & Baumgarten (1997). Briefly, electrodes were pulled from glass capillaries to give a final tip diameter of […] and a resistance of 0.5–1 MW when filled with the standard electrode filling solution (K aspartate 120 mM, KCl 10 mM, NaCl 10 mM, MgSO4 3 mM, Hepes 10 mM, pH 7.1). Whole cell currents were recorded using an Axoclamp 200A. Pulse and ramp protocols, voltage clamp data acquisition and off-line data analysis were controlled with software written in ASYST. Both step and ramp voltage clamp protocols were applied with a holding potential of −80 mV. Currents were digitized at 1 KHz and low-pass filtered at 200 Hz. Whole cell currents were recorded using the amphotericin perforated patch technique. Solution changes were performed by bath perfusion that was completed within 10 s. The standard bath solution contained (NaCl 65 mM, KCl 5 mM, CaSO4 2.5 mM, MgSO4 0.5 mM, glucose 10 mM and Hepes 10 mM pH 7.2, and 130 mM (IT) or 283 mM (1.5 T) mannitol to control the osmolarity. Isotonic osmolarity was taken as 296 mosm (IT) and 444 mosm for hypertonic solution (1.5 T).
# The myocytes were exposed to 1.0 T and 1.5 T solution in the absence (1.0 TC, 1.5 TC) and presence (1.0 TTX, 1.5 TTX) of 0.4 μM GsMTx-4. […] However, whole cell current was unaffected by GsMTx-4 when swelling-activated currents were inactivated by 1.5 T hypertonic saline (FIG. 9Bd). […] The remaining inward current is largely. ICI,swell. […]
sequence,measurement,setting,value
GCLEFWWKCNPNDDKCCRPKLKCSKLFKLCNFSFGK [GsMTx-4],time constant of current decay during GsMTx-4 application (association),"[1]; 5 μM toxin, outside-out patches held at −50 mV, single exponential fit",594 ± 10 ms
same,average SAC current when GsMTx-4 was applied,"[1]; 7 patches, −50 mV, 2.04±0.14 pA prior to application",0.17±0.02 pA
same,block of SACs,"[1]; HPLC fractions at 1:1000 dilution relative to whole venom, outside-out patches",the block was complete
same,association constant ka,"[1]; assuming 1:1 binding, from time constant at 5 μM",340000 M⁻¹ s⁻¹ and 330000 M⁻¹ s⁻¹
same,ratio of blocked to unblocked current I/I0,[1]; data of FIG. 6,0.083
same,dissociation constant kd,[1]; from recovery kinetics on washout,0.21 s⁻¹
same,average SAC current after GsMTx-4 washout,"[1]; last 8 pressure steps, 10 seconds after washout",2.28±0.17 pA
same,calculated equilibrium constant KD=kd/ka,[1]; ratio of rate constants,631 ± 240 nM
same,Kd,"[1]; single binding site model, read-out: binding constant Kd from I/I0",415 nM
same,"effect on inward ICir,swell",[2]; 1.0 T,significant reduction
same,"effect on outward ICI,swell",[2]; 1.0 T,no effect
same,effect on whole cell current when swelling-activated currents inactivated,[2]; 1.5 T hypertonic saline,unaffected
